Source: US9642858B2, “Use of resazurin, or analogs thereof, for antibacterial therapy” (priority 2012, dated 2017)
In brackets after ≈: the same amount, converted by molar mass. Entries after “also recorded” stand apart in the source; their conditions may differ.

Legend:
[1] = tested on: type A F. tularensis (Schu S4); format: cell-based, Francisella tularensis; details: 44 μM
[2] = tested on: N. gonorrhoeae; format: cell-based, Neisseria gonorrhoeae; details: 44 μM
[3] = tested on: F. tularensis LVS; experiment: microbe, parasite or virus in culture; format: cell-based, Francisella tularensis
[4] = tested on: Escherichia coli; format: cell-based; details: 44 μM
[5] = tested on: Pseudomonas aeruginosa; format: cell-based; details: 44 μM
[6] = tested on: F. tularensis LVS in HEK-293 cells; format: cell-based, Francisella tularensis
[7] = tested on: F. tularensis LVS in primary human macrophages; format: cell-based, Francisella tularensis
[8] = tested on: N. polysaccharea; format: cell-based, Neisseria polysaccharea
[9] = tested on: N. sicca; format: cell-based, Neisseria sicca
[10] = tested on: F. novicida; format: cell-based, Francisella novicida
[11] = tested on: primary human macrophages; experiment: Viability of infected macrophages treated with resazurin (visible reduction of resazurin to resorufin)

O=c1ccc2[n+]([O-])c3ccc(O)cc3oc-2c1 [resazurin, 7-Hydroxy-3H-phenoxazin-3-one 10-oxide]
bactericidal effect on chocolate II agar [1]: potent bactericidal effect
bactericidal effect on chocolate II agar [2]: potent bactericidal effect
F. tularensis growth [3]: growth is inhibited
antibacterial activity (viable bacteria per ml) [3]: have antibacterial activity
antimicrobial activity, effect of medium [3]: not affected by the choice of medium
bacterial viability over time [3]: significant decline in viable bacteria
bactericidal activity to F. tularensis [3]: bactericidal
reduction in viable F. tularensis LVS bacteria compared to growth medium alone [3]: ~10 fold
viable bacteria [3]: decrease in viable bacteria
MIC ([3]; Francisella tularensis, read-out: minimal inhibitory concentration against F. tularensis): 4.4 µM (≈ 1.01 µg/mL)
bacterial viability / antimicrobial effect [4]: does not have an antimicrobial effect; also recorded: no effect on bacterial viability
bacterial viability / antimicrobial effect [5]: does not have an antimicrobial effect; also recorded: no effect on bacterial viability
intracellular growth / bacterial burden [6]: inhibited intracellular growth; also recorded: reduces bacterial burden
viable intracellular bacteria compared to the control [6]: substantial decrease in viable bacteria
intracellular growth / bacterial burden [7]: inhibited intracellular growth; also recorded: reduces bacterial burden
viable intracellular bacteria [7]: substantial decrease in viable bacteria
bactericidal activity [8]: bactericidal
bactericidal activity [9]: bactericidal
bactericidal activity [10]: bactericidal
viability of macrophages (toxicity) [11]: still viable

O=c1ccc2nc3ccc(O)cc3oc-2c1 [resorufin]
antibacterial activity (viable bacteria per ml) [3]: have antibacterial activity
antimicrobial effect on F. tularensis LVS viability (CFU) relative to resazurin [3]: equivalently potent antimicrobial effect
bactericidal activity to F. tularensis [3]: bactericidal
